Experimental data reported in patent publication US9211244B2, “Method for anti-skin aging using caffeamide derivative” (CHINA MEDICAL UNIVERSITY, priority 2013, dated 2015).

Key:
skin of white rabbit = assay: Primary skin irritation test; format: in vivo, New Zealand white rabbit
Protocol: First, 20 mg (low dosage) and 80 mg or 100 mg (high dosage) of the compounds of formula (1) and formula (2) prepared in Example 1 were dissolved in 1 ml of 40% PEG-400 solution, respectively. Next, a New Zealand white rabbit was fixed on a rabbit cage and the fur on its back was clipped. A color pen was used to draw six squares (2.5 cm×2.5 cm for each square) of smearing region. The six squares were divided into keratin intact group and keratin abraded group. In the keratin abraded group, a sterile needle was used to scrape four parallel lines inside the squares on the back of the white rabbit to damage the keratin layer, but without bleeding. Low dosage and high dosage of compounds of formula (1) or formula (2) were smeared inside the squares evenly. After 24 hours, the skin of white rabbit was wiped with physiologic saline solution to remove compounds of formula (1) or formula (2). […] The observation time should be extended when the irritation was shown.
The statistical method of this test was analyzed by ANOVA (analysis of variance) and Student's t-test; p<0.05 indicates a statistical significance. Each experiment was performed over three times, and the results are shown by the standard error of the mean (mean±standard error). The results are shown in Table 7A, Table 7B, FIGS. 11a to 11d, and FIGS. 12a to 12d.

MMP-9 = format: cell-based, human; details: 10 μM; UVB 40 mJ/cm^2; 48 hours
Protocol: After incubating for 1 hour, the cells were irradiated by UV light (UVB with an intensity of 40 mJ/cm^2) for 15 seconds. […] After incubation in an incubator (37° C., 5% CO2) for 48 hours, the cells were collected.

tyrosinase = biological target: T1, tyrosinase (Mus musculus, UniProt P11344); assay: Activity analysis of tyrosinase in B16 cells; format: cell-based; details: 5 μM to 125 μM, 48 hours
T1 construct: endogenous in cells; host or cells: B16 cells
T1 sequence (P11344 19-533): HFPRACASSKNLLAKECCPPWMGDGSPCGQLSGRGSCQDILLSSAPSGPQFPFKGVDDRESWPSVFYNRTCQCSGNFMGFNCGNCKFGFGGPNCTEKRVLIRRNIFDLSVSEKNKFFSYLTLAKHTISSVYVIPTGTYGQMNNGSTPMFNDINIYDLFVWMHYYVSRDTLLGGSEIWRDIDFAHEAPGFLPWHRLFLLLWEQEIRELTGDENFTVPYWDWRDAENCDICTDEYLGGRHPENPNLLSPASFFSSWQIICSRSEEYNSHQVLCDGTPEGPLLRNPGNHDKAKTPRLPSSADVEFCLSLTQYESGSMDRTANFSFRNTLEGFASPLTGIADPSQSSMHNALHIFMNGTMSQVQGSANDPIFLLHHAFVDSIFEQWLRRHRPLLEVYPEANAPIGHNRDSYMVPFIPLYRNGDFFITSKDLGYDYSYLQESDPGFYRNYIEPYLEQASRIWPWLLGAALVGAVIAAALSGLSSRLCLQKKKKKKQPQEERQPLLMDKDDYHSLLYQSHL
Protocol: It has been known that tyrosinase is one of the primary protein participating in melanogenesis. In this experiment, different concentrations (5 μM to 125 μM) of the compounds of formula […] or (2) prepared in Example 1 were used to treat B16 cells (1.5×10^4) for 48 hours, and the activity of tyrosinase was analyzed by western blotting.

MMP-3 = assay: MMP expression, western blot, UVB-irradiated Hs68 cells; format: cell-based, human; details: 25 μM; UVB 40 mJ/cm^2; 48 hours
Protocol: (§1) Human fibroblast Hs68 cells (5×10^5) (the number of Bioresource Collection and Research Center (BCRC): 60038) were counted and incubated in a culture dish with a diameter of 10 cm (the culture dish components were adjusted by L-glutamine (4 mM) to have 1.5 g/L NaHCO3, 4.5 g/L glucose, and 90% Dulbecco's Modified Eagle's Medium with 10% fetal bovine serum (FBS)). The medium was removed until human fibroblast Hs68 cells grow to a confluence of 80%, and the cells were then washed once with 5 ml PBS (phosphate buffered saline). Then, 3 ml phenol red-free medium which contain different concentrations (0 μM to 25 μM) of the compounds of formula (1) or formula (2) prepared in Example 1 were added into the culture dish. After incubating for 1 hour, the cells were irradiated by UV light (UVB with an intensity of 40 mJ/cm^2) for 15 seconds. Next, the phenol red-free medium which contains different concentrations (0 μM to 25 μM) of the compounds of formula (1) or formula (2) prepared in Example 1 were added into the culture dish sequentially. After incubation in an incubator (37° C., 5% CO2) for 48 hours, the cells were collected.
(§2) The collected cells were treated with a sonication buffer (containing Na3VO4 (100 μM), phenylmethanesulfonyl fluoride (PMSFL, 100 mg/ml), leupeptin (20 mg/ml), Tris-HCl (pH 7.4, 50 μM), NaCl (37.5 μM), DL-dithiothretiol (250 μM), sodium deoxycholate (3 μM), EDTA (1 μM), SDS (0.1%), and Igepal™ CA-630 (Sigma-Aldrich, 1%)) and sonicated to rupture the cell membranes. Then, the organelles and fragments of the cells were precipitated by centrifugation, and the supernatant, which contains proteins in the cytosol was collected. Next, the obtained proteins were separated by SDS-PAGE, and transferred to a membrane by western blotting. Antibodies were used to recognize the targeted proteins, such as MMP-1, MMP-3, MMP-9, and actin. The images were recorded by a Luminescent imagination technology (LAS-4000, FUJIFILM), and the variation of the proteins expression levels were determined by a quantitative analysis software (multi Gauge 2.2, Steware Technology Inc.).

MMP-1 = assay: as above; format: cell-based, human; details: 5 μM; UVB 40 mJ/cm^2; 48 hours
Protocol: as §1, §2

[1] = tested on: human fibroblast Hs68 cells; assay: Scavenging test of ROS free radicals in UVB-irradiated cells; format: cell-based; details: UVB 80 mJ/cm^2, 24 hours
Protocol: After incubated in an incubator (37° C., 5% CO2) for 24 hours, the ROS level was examined.

In the case of O=C(C=Cc1ccc(O)c(O)c1)NCCc1ccc(Br)cc1 [Compound of formula (2)], the “primary irritation index (PII), mean ± standard error” value (skin of white rabbit; 20 mg, 24 hour, abraded skin) is reported as 0.0 ± 0.0, the “primary irritation index (PII), single rabbits 1-3” value (skin of white rabbit; 20 mg, 24 hour, abraded skin) is reported as 0 and the “primary irritation index (PII), mean ± standard error” value (skin of white rabbit; 20 mg, 24 hour, intact skin) is reported as 0.0 ± 0.0. The “primary irritation index (PII), single rabbits 1-3” value (skin of white rabbit; 20 mg, 24 hour, intact skin) was 0, the “primary irritation index (PII), mean ± standard error” value (skin of white rabbit; 20 mg, 72 hour, abraded skin) was 0.0 ± 0.0 and the “primary irritation index (PII), single rabbits 1-3” value (skin of white rabbit; 20 mg, 72 hour, abraded skin) was 0. The “primary irritation index (PII), mean ± standard error” value (skin of white rabbit; 20 mg, 72 hour, intact skin) was 0.0 ± 0.0, the “primary irritation index (PII), single rabbits 1-3” value (skin of white rabbit; 20 mg, 72 hour, intact skin) was 0 and the “primary irritation index (PII), mean ± standard error” value (skin of white rabbit; 80 mg, 24 hour, abraded skin) was 0.7 ± 0.6. For the same compound, the “primary irritation index (PII), mean ± standard error” value (skin of white rabbit; 80 mg, 24 hour, intact skin) was 0.0 ± 0.0, the “primary irritation index (PII), single rabbits 1-3” value (skin of white rabbit; 80 mg, 24 hour, intact skin) was 0 and the “primary irritation index (PII), mean ± standard error” value (skin of white rabbit; 80 mg, 72 hour, abraded skin) was 0.3 ± 0.6. The “primary irritation index (PII), mean ± standard error” value (skin of white rabbit; 80 mg, 72 hour, intact skin) was 0.0 ± 0.0, the “primary irritation index (PII), single rabbits 1-3” value (skin of white rabbit; 80 mg, 72 hour, intact skin) was 0 and the “expression level of MMP-9 as compared to that of the untreated cells” value (MMP-9) was 0.7 times. The “activity of the tyrosinase in the cells” value (tyrosinase) was “inhibited”, the “expression level of MMP-3 as compared to that of the untreated cells” value (MMP-3) was 1.0 times and the “expression level of MMP-1 as compared to that of the untreated cells” value (MMP-1) was 1.1 times. The “Concentration of ROS (times compared to the untreated cells)” value ([1]; 5 μM) was 1.0 ± 0.09 times, the “Concentration of ROS (times compared to the untreated cells)” value ([1]; 10 μM) was 0.9 ± 0.02 times and the “Concentration of ROS (times compared to the untreated cells)” value ([1]; 10 μM, listed as compound of formula (2)) was 0.9 times. The “Concentration of ROS (times compared to the untreated cells)” value ([1]; 25 μM) was 0.8 ± 0.04 times and the “Concentration of ROS (times compared to the untreated cells)” value ([1]; 25 μM, listed as compound of formula (2)) was 0.8 times.
